Measured values taken from patent US20250325528A1, “[…] ROLE OF mTORC1 INHIBITION OF NON-TUMOR CELLS” (THE BOARD OF REGENTS OF THE UNIVERSITY OF TEXAS SYSTEM, priority 2024, published 2025).

Assays:
[1] = tested on: XP164 TGs; test: Tumorgraft growth in different hosts, mixed-model analysis, XP164; assay type: in vivo, mice
Protocol: (§1) Tumor samples were collected from patients under IRB-approved protocol as previously described. 6-to-8-week-old NOD/SCID mice originally obtained from the UT Southwestern Breeding Core were implanted subcutaneously with patient-derived TGs. Calipers were used to measure tumor dimensions. Volume was calculated by multiplying width, length, and height, thereby minimizing the potential bias of disproportionately weighing one particular dimension (at the cost of overestimating tumor volumes). […] Tumors were measured weekly. As indicated, vehicle-treated tumors and rapamycin-sensitive tumors were harvested around 28 days. […] In accordance with UT Southwestern Institutional Animal Care and Use Committee policies, animals were euthanized once tumor diameters were larger than 2 cm.
(§2) Bar charts and series plots are presented as the mean±standard error of the mean (SEM) from more than three independent experiments. Unless otherwise indicated, the statistical significance was determined by t-test using GraphPad Prism. For each XP line, ANOVA with post-hoc t-tests were used to test for differential (phospho)protein levels between the three arms in the RPPA analysis (vehicle-treated, rapamycin-sensitive, and rapamycin-resistant) with FDR-adjusted P-values. For the mixed model analysis, data were summarized as mean tumor growth per day with 95% confidence intervals, as well as by fold change between groups. A positive fold change indicates increased tumor growth rates in the first group compared to the second. Estimates were obtained from a three-way factorial mixed model analysis for treatment group, mouse type, and day of measurement. Baseline volume was also included as a term in the model to control for differences in starting volumes. An autoregressive (AR-1) covariance structure was used to account for the correlation among repeated measurements for each mouse. ANOVA and mixed model analyses were completed using SAS 9.4. A P-value <0.05 was considered significant.
(§3) XP144, XP164 and XP490 were then implanted into NOD/SCID^mTOR-ST mice.
(§4) The mTOR-ST mutation had the least effect on XP490. […] In Table 4, data are summarized with mean tumor growth rates per day (95% confidence intervals) with fold change between the two groups. A positive fold change indicates increased tumor growth rates in the first group. mTOR-WT, wild type mice; mTORST, heterozygous mTOR-ST mice; mTORST/ST, homozygous mTOR-ST mice. Rapa, rapamycin-treatment; Veh, vehicle-treatment

[2] = tested on: XP144 TGs; test: Tumorgraft growth in different hosts, mixed-model analysis, XP144; assay type: in vivo, mice
Protocol: as §1, §2, §3, §4

[3] = following temsirolimus administration in patients; cited from earlier work
[4] = tested on: XP490 TGs; test: Tumorgraft growth in different hosts, mixed-model analysis, XP490; assay type: in vivo, mice
Protocol: as §1, with “weekly.” for “weekly. As indicated, vehicle-treated tumors and rapamycin-sensitive tumors were harvested around 28 days.”
as §2, with “For each XP line, ANOVA with post-hoc t-tests were used to test for differential (phospho)protein levels between the three arms in the RPPA analysis (vehicle-treated, rapamycin-sensitive, and rapamycin-resistant) with FDR-adjusted P-values.” left out
as §3
A positive fold change indicates increased tumor growth rates in the first group. mTOR-WT, wild type mice; mTORST, heterozygous mTOR-ST mice; mTORST/ST, homozygous mTOR-ST mice.

In the case of `CO[C@H]1C[C@@H]2CC[C@@H](C)[C@@](O)(O2)C(=O)C(=O)N2CCCC[C@H]2C(=O)O[C@H]([C@H](C)C[C@@H]2CC[C@@H](O)[C@H](OC)C2)CC(=O)[C@H](C)/C=C(\C)[C@@H](O)[C@@H](OC)C(=O)[C@H](C)C[C@H](C)/C=C/C=C/C=C/1C` [rapamycin], the “effect on tumor growth” value ([1]; XP164, NOD/SCID^mTOR-ST mice) is reported as “no significant effect”, the “Mean tumor growth per day (95% CI)” value ([1]; XP164, mTOR^ST (heterozygous) mice) is reported as 67.6 (57.2, 78.0) vs and the “Mean tumor growth per day (95% CI)” value ([1]; XP164, mTOR^ST/ST (homozygous) mice) is reported as 69.5 (58.5, 80.6) vs. The “Mean tumor growth per day (95% CI)” value ([1]; XP164, mTOR^WT mice) was 18.3 (12.6, 24.0) vs, the “delay of tumor growth” value ([1]; XP164, wild-type mice, vs vehicle) was 3.7 fold and the “effect on tumor growth” value ([2]; XP144, NOD/SCID^mTOR-ST mice) was “no significant effect”. For the same molecule, the “Mean tumor growth per day (95% CI)” value ([2]; XP144, mTOR^ST (heterozygous) mice) was 54.6 (36.8, 72.4) vs, the “Mean tumor growth per day (95% CI)” value ([2]; XP144, mTOR^WT mice, rapamycin 0.5 mg/kg IP every 48 hours) was 20.4 (10.5, 30.3) vs and the “reduction of tumor growth” value ([2]; XP144, wild-type mice, vs vehicle) was 1.5 fold. The “share of the circulating drug” value [3] was 70%, the “inhibition of tumor growth” value ([4]; XP490, mTOR-ST homozygous mice) was 2 fold and the “Mean tumor growth per day (95% CI)” value ([4]; XP490, mTOR^ST (heterozygous) mice) was 15.0 (11.7, 18.3) vs. The “Mean tumor growth per day (95% CI)” value ([4]; XP490, mTOR^WT mice) was 5.1 (1.1, 9.1) vs, the “inhibition of tumor growth” value ([4]; XP490, mice with the resistance mutation (heterozygous mTOR-ST)) was 6 fold and the “reduction of tumor growth” value ([4]; XP490, wild-type mice, vs vehicle) was 11 fold. For the same molecule, the “reduction of tumor growth inhibition in the resistant host” value ([4]; third TG line, resistant host vs wild type) was no more than 5 fold.
